From patent US5482957A, “Azole derivatives, process for their preparation and their use” (Hoechst Aktiengesellschaft, priority 1991, dated 1996)

target: angiotensin II receptor; assay: Displacement of 125I- or 3H-angiotensin II from receptor preparations from various organs (liver, lung, adrenal gland, brain etc.); assay type: binding; conditions: Table 1; radioligand displacement, 25° C., 90 min, pH 7.4
Experimental: Alternatively, the affinity of the compounds of the formula I for the angiotensin II receptor can be determined by measurement of the ^125 I-angiotensin II or ^3 H-angiotensin II displacement of receptor preparations from various organs (liver, lung, adrenal gland, brain etc.).
To this end, the prepared membranes are suspended in an incubation buffer ([…], pH 7.4, containing 135 mM NaCl, 10 mM KCl, 10 mM MgCl2, 5 mM glucose, 0.2% bovine serum albumin and the protease inhibitors PMSF, 0.3 mM, and bacitracin, 0.1 mM) and incubated at 25° C. for 90 min together with the radioactively labeled angiotensin II and various concentrations of the compounds to be tested. Bound and free radioligand are then separated by filtration through micro glass fiber filters (GF51, Schleicher and Schull) in a cell collector (SKATRON).
The degree of displacement of the radioligand from the receptor by the test compounds is determined by measurement of the receptor-bound radioactivity on the filters by means of a beta- or gamma-spectrometer. The amount of the displacement of the radioligand from the receptor by the test compounds is indicated by the IC50, i.e. the concentration of the inhibitor which displaces 50% of the bound radioligand from the receptor. The calculation of the IC50 values is carried out by means of PC software (LIGAND, G. A. McPherson 1985, Elsevier BIOSOFT, 68 Hills Road, Cambridge, CB2 1LA, UK.).

| Structure (SMILES) | IC50 [nM] |
| --- | --- |
| CCCCc1nc(Cl)c(C=O)n1Cc1ccc(-c2ccccc2S(=O)(=O)NC(=O)Nc2ccccc2)cc1 [Example 1, 1-[(2'-phenylaminocarbonylaminosulfonylbiphenyl-4-yl)methyl]-2-n-butyl-4-chloroimidazole-5-carboxaldehyde] | 5000 |
| CCCCc1nc(Cl)c(C=O)n1Cc1ccc(-c2ccccc2S(=O)(=O)NC(=O)NCCC)cc1 [Example 2, 1-[(2'-n-propylaminocarbonylaminosulfonylbiphenyl-4-yl)methyl]-2-n-butyl-4-chloroimidazole-5-carboxaldehyde] | 8000 |
| CCCCc1nc(Cl)c(C=O)n1Cc1ccc(-c2cccc(S(=O)(=O)NC(=O)Nc3ncccn3)c2)cc1 [Example 4] | 1100 |
| CCCCc1nc(Cl)c(C=O)n1Cc1ccc(-c2cccc(S(=O)(=O)NC(=O)Nc3nnn[nH]3)c2)cc1 [Example 5] | 16000 |
| CCCCc1nc(Cl)c(C=O)n1Cc1ccc(-c2ccccc2S(=O)(=O)NC(=O)Nc2ccc([N+](=O)[O-])cc2)cc1 [Example 22] | 2000 |
| CCCCc1nc(Cl)c(C=O)n1Cc1ccc(-c2ccccc2S(=O)(=O)NC(=O)Nc2ccccc2F)cc1 [Example 24] | 800 |
| CCCCc1nc(Cl)c(C=O)n1Cc1ccc(-c2ccccc2S(=O)(=O)NC(=O)Nc2ccc(F)cc2)cc1 [Example 25] | 1400 |
| CCCCc1nc(Cl)c(C=O)n1Cc1ccc(-c2ccccc2S(=O)(=O)NC(=O)NCCc2ccccn2)cc1 [Example 29] | 1.1 |
| CCCCc1nc(Cl)c(C=O)n1Cc1ccc(-c2ccccc2S(=O)(=O)NC(=O)NCCN2CCCCC2)cc1 [Example 30] | 2030 |
| CCCCc1nc(Cl)c(C=O)n1Cc1ccc(-c2ccccc2S(=O)(=O)NC(=O)NC2CN3CCC2CC3)cc1 (stereo not drawn) [Example 31] | 153 |
| CCCCc1nc(Cl)c(C=O)n1Cc1ccc(-c2ccccc2S(=O)(=O)NC(=O)Nc2nc(C)cs2)cc1 [Example 32] | 3.5 |
| CCCCc1nc(Cl)c(C=O)n1Cc1ccc(-c2ccccc2S(=O)(=O)NC(=O)Nc2ccccc2OC)cc1 [Example 33] | 34 |
| CCCCc1nc(Cl)c(C=O)n1Cc1ccc(-c2ccccc2S(=O)(=O)NC(=O)NCc2ccc(OC)cc2)cc1 [Example 34] | 1 |
| CCCCc1nc(Cl)c(C=O)n1Cc1ccc(-c2ccccc2S(=O)(=O)NC(=O)Nc2ccc(C)cc2)cc1 [Example 35] | 50 |
| CCCCc1nc(Cl)c(C=O)n1Cc1ccc(-c2ccccc2S(=O)(=O)NC(=O)Nc2ccccc2C)cc1 [Example 36] | 16 |
| CCCCc1nc(Cl)c(C=O)n1Cc1ccc(-c2ccccc2S(=O)(=O)NC(=O)NCCc2ccccc2)cc1 [Example 37] | 1.1 |
| C=CCNC(=O)NS(=O)(=O)c1ccccc1-c1ccc(Cn2c(CCCC)nc(Cl)c2C=O)cc1 [Example 55, 1-[(2'-allylaminocarbonylaminosulfonylbiphenyl-4-yl)methyl]-2-n-butyl-4-chloroimidazole-5-carboxaldehyde] | 8.8 |
| C=CCNC(=O)NS(=O)(=O)c1ccccc1-c1ccc(Cn2c(CCCC)nc(SC)c2C(=O)O)cc1 [Example 56, 1-[(2'-allylaminocarbonylaminosulfonylbiphenyl-4-yl)methyl]-2-n-butyl-4-methylthioimidazole-5-carboxylic acid] | 4.6 |
| C=CCNC(=O)NS(=O)(=O)c1ccccc1-c1ccc(Cn2c(CCCC)nc(SC)c2C(=O)OCC)cc1 [Example 58] | 3 |
| CCCCc1nc(SC)c(C(=O)O)n1Cc1ccc(-c2ccccc2S(=O)(=O)NC(=O)NC2CCCCC2)cc1 [Example 59] | 1.3 |
| CCCCc1nc(SC)c(C(=O)O)n1Cc1ccc(-c2ccccc2S(=O)(=O)NC(=O)NCC2CCCCC2)cc1 [Example 60] | 2.2 |
| C=CCN(CC=C)C(=O)NS(=O)(=O)c1ccccc1-c1ccc(Cn2c(CCCC)nc(SC)c2C(=O)O)cc1 [Example 61] | 1.1 |
| CCCCc1nc(SC)c(C(=O)O)n1Cc1ccc(-c2ccccc2S(=O)(=O)NC(=O)NCCC2=CCCCC2)cc1 [Example 62] | 3.6 |

| Structure (SMILES) | IC50 [nM] |
| --- | --- |
| C#CCNC(=O)NS(=O)(=O)c1ccccc1-c1ccc(Cn2c(CCCC)nc(SC)c2C(=O)O)cc1 [Example 64] | 0.5 |
| CCCCc1nc(SC)c(C(=O)OCC)n1Cc1ccc(-c2ccccc2S(=O)(=O)NC(=O)NCCc2ccccn2)cc1 [Example 65] | 1.8 |
| CCCCc1nc(SC)c(C(=O)OCC)n1Cc1ccc(-c2ccccc2S(=O)(=O)NC(=O)NCCc2ccccc2)cc1 [Example 66] | 6.9 |
| CCCCc1nc(SC)c(C(=O)O)n1Cc1ccc(-c2ccccc2S(=O)(=O)NC(=O)NCCc2ccccc2)cc1 [Example 67] | 0.91 |
| CCCCc1nc(SC)c(C(=O)OCC)n1Cc1ccc(-c2ccccc2S(=O)(=O)NC(=O)N[C@H](C(=O)OC)C(C)CC)cc1 (stereo partly drawn) [Example 68] | 12 |
| CCCCc1nc(SC)c(C(=O)OCC)n1Cc1ccc(-c2ccccc2S(=O)(=O)NC(=O)N[C@H](C(=O)OC)C(C)C)cc1 [Example 69] | 3.2 |
| CCCCc1nc(SC)c(C(=O)OCC)n1Cc1ccc(-c2ccccc2S(=O)(=O)NC(=O)NCC(=O)OC)cc1 [Example 71] | 2.2 |
| CCCCc1nc(SC)c(C(=O)OCC)n1Cc1ccc(-c2ccccc2S(=O)(=O)NC(=O)NCc2ccccc2)cc1 [Example 73] | 2.5 |
| CCCCc1nc(SC)c(C(=O)OCC)n1Cc1ccc(-c2ccccc2S(=O)(=O)NC(=O)NCCCc2ccccc2)cc1 [Example 76] | 9.5 |
| CCCCc1nc(SC)c(C(=O)O)n1Cc1ccc(-c2ccccc2S(=O)(=O)NC(=O)NCCc2cccc(C(F)(F)F)c2)cc1 [Example 79] | 5.8 |
| CCCCc1nc(SC)c(C(=O)O)n1Cc1ccc(-c2ccccc2S(=O)(=O)NC(=O)NCc2ccccc2)cc1 [Example 80] | 0.69 |
| CCCCc1nc(SC)c(C(=O)O)n1Cc1ccc(-c2ccccc2S(=O)(=O)NC(=O)NCCCc2ccccc2)cc1 [Example 81] | 0.79 |
| CCCCc1nc(SC)c(C(=O)O)n1Cc1ccc(-c2ccccc2S(=O)(=O)NC(=O)NCc2ccccc2OC)cc1 [Example 83] | 0.96 |
| CCCCc1nc(SC)c(C(=O)OCC)n1Cc1ccc(-c2ccccc2S(=O)(=O)NC(=O)NCc2ccccc2OC)cc1 [Example 84] | 4.3 |
| CCCCc1nc(SC)c(C(=O)OCC)n1Cc1ccc(-c2ccccc2S(=O)(=O)NC(=O)NCc2cccc(OC)c2)cc1 [Example 85] | 3.9 |
| CCCCc1nc(SC)c(C(=O)O)n1Cc1ccc(-c2ccccc2S(=O)(=O)NC(=O)NCc2ccc(OC)c(OC)c2)cc1 [Example 89] | 1.1 |
| CCCCc1nc(SC)c(C(=O)O)n1Cc1ccc(-c2ccccc2S(=O)(=O)NC(=O)NCc2ccc(OC)cc2)cc1 [Example 90] | 0.69 |
| CCCCc1nc(SC)c(C(=O)OCC)n1Cc1ccc(-c2ccccc2S(=O)(=O)NC(=O)NCc2ccc(OC)c(OC)c2)cc1 [Example 92] | 280 |
| CCCCc1nc(SC)c(C(=O)OCC)n1Cc1ccc(-c2ccccc2S(=O)(=O)NC(=O)NC(C)c2ccccc2)cc1 (stereo not drawn) [Example 95] | 1.8 |
| CCCCc1nc(SC)c(C(=O)O)n1Cc1ccc(-c2ccccc2S(=O)(=O)NC(=O)N[C@@H](Cc2ccccc2)C(=O)O)cc1 [Example 98] | 1.4 |
| CCCCc1nc(SC)c(C(=O)OCC)n1Cc1ccc(-c2ccccc2S(=O)(=O)NC(=O)Nc2ccccc2)cc1 [Example 99] | 26.6 |
| CCCCc1nc(SC)c(C(=O)OCC)n1Cc1ccc(-c2ccccc2S(=O)(=O)NC(=O)Nc2ccc(F)cc2)cc1 [Example 100] | 68.5 |
